Experiment [1] deals with T1, Aβ42 (Homo sapiens, UniProt P05067).
T1 construct: Aβ42 peptides were collected from the entire volume of the cell culture medium and total cell lysates; host or cells: Peptide added to the medium of SH-SY5Y cells; not made by the cells
In words: Western blot of Aβ42 degradation in SH-SY5Y cells. The format is cell-based. The conditions noted are these: for LPS-induced degradation of Aβ42 in the presence of inhibitor: SH-SY5Y; for Aβ42 degradation in SH-SY5Y cells co-treated with the agent: Western blotting, FIG. 13. On the procedure:
Western Blots. To assess the level of Aβ42 in the cell culture medium, Aβ42 peptides were collected from the entire volume of the cell culture medium and total cell lysates and mixed with protein sample buffer (final 0.1 M Tris-HCl, pH6.8, 10% glycerol, 2% SDS, 1% […], and 0.01% bromophenol blue) for Western blot analysis. The samples of cell mixture were analyzed by SDS-PAGE gel electrophoresis and transferred to a PVDF membrane (Millipore). After blocking with blocking buffer containing 5% w/v nonfat dry milk in PBST (1× phosphate-buffered saline and 0.1% Tween 20) at room temperature for 1 h, the membrane was incubated with a primary antibody diluted in the blocking buffer at 4° C. overnight. After hybridization with primary antibody, the membrane was washed three times with PBST before the addition of an HRP-conjugated secondary antibody against the primary antibody. The membrane was then washed three times with PBST before immunoreactive bands were detected by chemiluminescence (PerkinElmer) or Ponceau S staining (Bersting Technology).
On the technique in general: In western blotting, separated proteins are transferred to a membrane and probed.

In experiment [2] the test system is SH-SY5Y cells. Nature of the experiment: Cell viability (CCK8) of Aβ42-treated neuronal cells. The format is cell-based. On the procedure: The general procedures used for preparing the transient LPS-Aβ42 complex and the validation of cell cytotoxicity were as follows. First, Aβ42 (100 μM) and LPS (1000 nM, derived from Escherichia coli O111:B4, Sigma-Aldrich) were added to each group medium containing 2.5% dimethyl sulfoxide (DMSO) and then sterilized by using UV light. The medium was then replaced and the remaining mixture was incubated for 72 hours at 37° C. in 5% CO2 humidified air. Cell viability was measured using the CCK8 (Sigma-Aldrich 96992) assay according to the manufacturer's protocol. A 0.22-μm filter (non-pyogenic, Millex®-GV) was used to remove unbound LPS, if needed, in the LPS-Aβ42 solution.
Cell viability. Neural cells were maintained in MEM (Gibco 11095-080) supplemented with 10% FBS and 1×MEM NEAA (Gibco 11140-050). Neural SH-SY5Y cells were plated at a density of 8000 cells per well in 96-well plates (Costar 3599) and allowed to attach overnight at 37° C. in 5% CO2 humidified air. Aβ42 (100 μM), LPS (1000 nM), SAuM (1000 nM), or colistin (1000 nM) were then added to each group medium containing 2.5% dimethyl sulfoxide (DMSO) and sterilized by using UV light. The medium was then replaced every day and the remaining mixture was incubated for 72 hours at 37° C. in 5% CO2 humidified air. Cell viability was measured using the CCK8 (Sigma-Aldrich 96992) assay according to the manufacturer's protocol. A 0.22-μm filter (non-pyogenic, Millex®-GV) was used to remove unbound LPS, if needed, in the LPS-Aβ42 solution.

T1 sequence (P05067 672-713 limits assumed): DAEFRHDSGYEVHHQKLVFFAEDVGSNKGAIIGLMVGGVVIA

Regarding `CN(C)CCCN1c2ccccc2Sc2ccc(Cl)cc21` [chlorpromazine], the “LPS-induced degradation of Aβ42 in the presence of inhibitor” value (“LPS-induced degradation … of inhibitor” below) in experiment [1] is listed as “suppressed”.

In the case of `CCCCCCCCCCC[C@@H](O)CC(=O)N[C@H]1[C@H](OC[C@H]2OC(O)[C@H](NC(=O)C[C@H](O)CCCCCCCCCCC)[C@@H](OC(=O)C[C@H](O)CCCCCCCCCCC)[C@@H]2O)O[C@H](CO)[C@@H](OP(=O)(O)O)[C@@H]1OC(=O)C[C@H](O)CCCCCCCCCCC` (stereo partly drawn) [PXI, 2-deoxy-6-O-(2-deoxy-3-O-[(3R)-3-hydroxytetradecanoyl]-2-{[(3R)-3-hydroxytetradecanoyl]amino}-4-O-phosphono-β-D-glucopyranosyl)-3-O-[(3R)-3-hydroxytetradecanoyl]-2-{[(3R)-3-hydroxytetradecanoyl]amino}-D-glucopyranose], the “Aβ42 degradation in SH-SY5Y cells co-treated with the agent” value (“Aβ42 degradation” below) in experiment [1] was “able to cause Aβ42 degradation”.

For `O=C(N/N=C/c1ccc(O)c(O)c1)c1cc2ccccc2cc1O` [dynasore], the “LPS-induced degradation … of inhibitor” value in experiment [1] was “suppressed”.

For Monophosphoryl lipid A [MPL], the “Aβ42 degradation” value in experiment [1] is “able to cause Aβ42 degradation”.

On to colistin, for which the “rescue effect of LPS against Aβ42 neuronal toxicity in the presence of inhibitor” value (from here on “rescue effect of LPS … of inhibitor”) in experiment [2] was “abolished”.

In the case of `CCCCCCCCCCC[C@@H](O)CC(=O)N[C@H]1[C@H](OC[C@H]2O[C@H](OP(=O)(O)O)[C@H](NC(=O)C[C@H](O)CCCCCCCCCCC)[C@@H](OC(=O)C[C@H](O)CCCCCCCCCCC)[C@@H]2O)O[C@H](CO)[C@@H](OP(=O)(O)O)[C@@H]1OC(=O)C[C@H](O)CCCCCCCCCCC` [PIX, 2-deoxy-6-O-(2-deoxy-3-O-[(3R)-3-hydroxytetradecanoyl]-2-{[(3R)-3-hydroxytetradecanoyl]amino}-4-O-phosphono-β-D-glucopyranosyl)-3-O-[(3R)-3-hydroxytetradecanoyl]-2-{[(3R)-3-hydroxytetradecanoyl]amino}-1-O-phosphono-α-D-glucopyranose], the “Aβ42 degradation” value in experiment [1] is recorded as “able to cause Aβ42 degradation”.

With `CO/C1=C\C(C)=C\[C@@H](C)[C@@H](O)[C@@H](C)C/C(C)=C/C=C/[C@H](OC)[C@@H]([C@@H](C)[C@@H](O)[C@H](C)[C@@]2(O)C[C@@H](O)[C@H](C)[C@@H](C(C)C)O2)OC1=O` [BA, bafilomycin A1], in experiment [2], the “rescue effect of LPS … of inhibitor” value is on record as “increasing the cell death”. Moreover, the “LPS-induced degradation … of inhibitor” value in experiment [1] is “decreasing the degradation of Aβ42”.

Turning to methyl-β-cyclodextrin, in experiment [1], the “LPS-induced degradation … of inhibitor” value is “suppressed”.

Turning to `Cn1cnc(=N)c2[nH]cnc21` [3MA, methyladenine], the “rescue effect of LPS … of inhibitor” value in experiment [2] was “increasing the cell death”. Moreover, the “LPS-induced degradation … of inhibitor” value in experiment [1] is on record as “decreasing the degradation of Aβ42”.
